# From publication PMC8058733, “A pain killer without analgesic tolerance designed by co-targeting PSD-95-nNOS interaction and α2-containning GABAARs” (Theranostics, 2021)
# How the values were obtained:
# motor coordination = assay: Rotarod test, motor coordination; type: in vivo; details: rats, 30 min after injection, ZL006-05 60 mg/kg, i.v., diazepam 0.5 mg/kg
# [1] = system: SNL-induced mechanical hyperalgesia; assay: SNL-induced mechanical hyperalgesia, paw withdrawal threshold; type: in vivo, rat; details: SNL rats, ZL006-05 60 mg/kg/d, i.g., ×11 d
# locomotor activity = assay: Open field test, locomotor activity; type: in vivo; details: mice, 1 h after injection, ZL006-05 60 mg/kg, i.v., diazepam 0.5 mg/kg
# Experimental: The locomotor activity was assessed by the open field test as described previously. The apparatus consisted of a large area composed of plastic, surrounded by walls that were 100 cm high. The floor was 50 × 50 cm for mice; the overall illumination was 25 lux. Each animal was gently placed in the center of the open field, and its behavior was videotaped. The distance the animals travelled was measured in a 5-min session using ANY-maze (Stoelting Co., IL, USA). After each trial, the plate was cleaned with 70% EtOH. No stressor was applied to the animals for at least 12 h before the test.
# PSD-95-nNOS complex = target: T1, PSD-95-nNOS complex (Rattus norvegicus, UniProt P29476); assay: Co-IP of PSD-95-nNOS complex levels in the spinal dorsal horn after SNL; type: in vivo; details: SNL rats treated by ZL006-05
# T1 construct: dorsal spinal cord tissues (L4 and L5) were lysed in 400 μl RIPA; from tissue; host or cells: rat dorsal spinal cord (L4 and L5), SNL model
# [2] = system: CFA-induced inflammatory pain; assay: CFA-induced inflammatory pain, paw withdrawal threshold; type: in vivo; details: mice, ZL006-05 60 mg/kg, i.g., given 24 h after CFA injection
# Experimental: For mice, the threshold for 50% PWT response to mechanical stimulus was quantified by assessing the paw withdrawal threshold using von Frey filaments (Touch-Test TM Sensory Evaluator, North coast Medical, Inc.). Mice were placed individually in a plastic cage (4.5 × 5 × 11 cm) with a wire mesh bottom which allowed full access to the paws. Behavioral accommodation was allowed for 20-30 min until cage exploration and major grooming activities ceased. Mechanical threshold was measured by applying a von Frey filament to the ventral surface of the right hind paw until a positive sign of pain behavior was elicited. The paradigm for assessing the threshold was as follows. Von Frey filaments with logarithmically incremental stiffness (0.02-2 g) were applied serially to the paw by the up-down method. […]
# (A) Time course of SNL-induced thermal hyperalgesia after treating with ZL006-05 (60 mg/kg, i.g.) in mice. Paw withdrawal latency response to thermal stimulation was detected at 0, 1, 2, 4, 6, 8, 10, 12 and 24 h after drug administration. ( B) Areas under the curve of paw withdrawal latency 0-24 h after treatment calculated from ( A) (F (1,16) = 43.07, ***p < 0.001, two-tailed t-test, n = 9). […] (E) Areas under the curve of paw withdrawal latency 0-24 h after treatment calculated from (D) (F (1,18) = 71.73, ***p <0.001, two-tailed t-test, n = 10). […]
# [3] = system: SNL-induced thermal hyperalgesia; assay: SNL-induced thermal hyperalgesia, paw withdrawal latency; type: in vivo, mice; details: mice, ZL006-05 60 mg/kg, i.g., 0-24 h
# Experimental: Neuropathic pain was induced by segmental spinal nerve ligation (SNL). Animals were anesthetized with isoflurane. After the loss of righting reflex, the animal was fixed in the prone position. The SNL model was prepared as described previously: a median skin incision with about 3-5 cm length in L4-S2 level of the mouse back was made, the muscles next to the vertebrae till the sixth lumbar protruding were separated, the L5/L6 joint protruding on the right side was exposed and excised, and L6 processus transversus was partially split so that the L4-L6 spinal nerves on the right side were exposed. L5 nerve was gently isolated and tightly ligated with 5-0 silk thread. […]
# Paw withdrawal latency (PWL) response to thermal stimulus was assessed through the Hargreaves test. […] To record the PWL in response to thermal stimulus, each animal was measured five times with a 5-min interval, and the mean value was recorded after excluding maximal and minimum values. […]
# (A) Time course of SNL-induced thermal hyperalgesia after treating with ZL006-05 (60 mg/kg, i.g.) in mice. Paw withdrawal latency response to thermal stimulation was detected at 0, 1, 2, 4, 6, 8, 10, 12 and 24 h after drug administration. ( B) Areas under the curve of paw withdrawal latency 0-24 h after treatment calculated from ( A) (F (1,16) = 43.07, ***p < 0.001, two-tailed t-test, n = 9). […]
# T1 sequence (P29476 whole entry, one chain of several): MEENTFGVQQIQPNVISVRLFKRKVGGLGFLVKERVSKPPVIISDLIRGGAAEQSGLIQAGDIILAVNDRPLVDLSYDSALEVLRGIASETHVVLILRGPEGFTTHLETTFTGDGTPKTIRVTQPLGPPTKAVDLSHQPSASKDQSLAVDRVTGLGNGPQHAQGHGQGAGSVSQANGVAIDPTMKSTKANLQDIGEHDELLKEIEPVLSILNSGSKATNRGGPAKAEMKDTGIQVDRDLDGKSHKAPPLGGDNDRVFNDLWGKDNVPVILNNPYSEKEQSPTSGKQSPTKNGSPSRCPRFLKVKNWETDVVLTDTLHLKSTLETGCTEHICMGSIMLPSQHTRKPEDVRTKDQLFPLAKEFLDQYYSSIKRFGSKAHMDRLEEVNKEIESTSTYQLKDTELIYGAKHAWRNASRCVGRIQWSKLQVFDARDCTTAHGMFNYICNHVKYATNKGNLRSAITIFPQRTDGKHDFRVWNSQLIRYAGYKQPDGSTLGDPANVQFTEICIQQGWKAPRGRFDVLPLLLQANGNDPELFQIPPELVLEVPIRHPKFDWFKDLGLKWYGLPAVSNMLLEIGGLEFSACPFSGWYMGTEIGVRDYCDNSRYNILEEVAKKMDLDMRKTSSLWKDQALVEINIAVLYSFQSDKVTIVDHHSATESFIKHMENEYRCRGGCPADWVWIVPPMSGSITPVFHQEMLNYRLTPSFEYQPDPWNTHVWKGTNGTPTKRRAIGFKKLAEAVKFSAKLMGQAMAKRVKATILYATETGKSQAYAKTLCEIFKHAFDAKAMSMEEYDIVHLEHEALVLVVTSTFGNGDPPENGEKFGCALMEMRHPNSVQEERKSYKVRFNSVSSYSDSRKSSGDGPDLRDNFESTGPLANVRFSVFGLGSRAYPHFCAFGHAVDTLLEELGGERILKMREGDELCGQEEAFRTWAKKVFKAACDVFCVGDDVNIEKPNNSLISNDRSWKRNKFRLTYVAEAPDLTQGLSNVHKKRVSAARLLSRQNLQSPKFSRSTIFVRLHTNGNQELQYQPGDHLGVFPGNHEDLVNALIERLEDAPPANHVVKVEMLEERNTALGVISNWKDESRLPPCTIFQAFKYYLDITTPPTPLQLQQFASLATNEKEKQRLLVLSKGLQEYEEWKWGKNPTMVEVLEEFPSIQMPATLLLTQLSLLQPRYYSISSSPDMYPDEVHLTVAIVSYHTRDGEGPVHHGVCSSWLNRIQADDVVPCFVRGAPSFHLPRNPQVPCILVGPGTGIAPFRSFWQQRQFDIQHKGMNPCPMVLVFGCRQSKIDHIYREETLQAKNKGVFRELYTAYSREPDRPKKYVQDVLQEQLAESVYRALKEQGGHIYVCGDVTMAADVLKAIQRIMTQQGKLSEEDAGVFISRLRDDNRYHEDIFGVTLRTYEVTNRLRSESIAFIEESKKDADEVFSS
smiles,measurement,setting,value
CC1(C)C2CCC1(C)C(OC(=O)c1ccc(NCc3cc(Cl)cc(Cl)c3O)cc1O)C2 (stereo not drawn) [ZL006-05],"Motor coordination, time spent on the accelerating rotarod",motor coordination,had no effect
same,"Analgesic tolerance, mechanical hyperalgesia",[1],did not produce analgesic tolerance
same,"Locomotor activity, distance travelled during 5 min",locomotor activity,had no effect
same,PSD-95-nNOS complex level in the SDH,PSD-95-nNOS complex,abolished the SNL-induced increase in PSD-95-nNOS complex in the SDH
same,Effect on CFA-induced inflammatory pain,[2],reduced
same,Effect on SNL-induced thermal hyperalgesia,[3],reduced SNL-induced mechanical hyperalgesia and thermal pain
